In brackets after ≈: the same amount, converted by molar mass. Where a SMILES comes first, the peptide text is derived from it. [ ]: non-standard residue; d: D form. Orn = NCCC[C@H](N)C(=O)O
Experiments:
[1] = system: P.a. 028; assay: In-vitro Microbiology of Fraction 73 (MIC/MBZ); format: cell-based, Pseudomonas aeruginosa
Text: (§1) The complex reaction mixture from Method C was chromatographed on reverse phase HPLC, and a microtiter plate assay was run throughout the entire chromatogram to identify active materials.

[2] = system: S. aureus (MRSA); format: cell-based, Staphylococcus aureus
Description: (§2) Antimicrobial activity was determined by macrobroth dilution antimicrobial susceptibility testing. Solutions of the cyclic decapeptides (Loloatin A, B and C) and a control (vancomycin) were prepared in tryptic soy broth. Initially, a 100 μg/ml solution of each compound was tested. When inhibition of target microorganism was detected, serial two-fold dilutions of the compound in broth were tested to determine the minimal inhibitory concentration (MIC) of each compound for each target organisms. Target organisms tested are listed below in Table 3, and included methicillin resistant Staphylococcus aureus, vancomycin resistant Enterococcus sp. Escherichia coli, multiply drug resistant Pseudomonas aeruginosa; Stenofrophomonas maltophilia and Candida albicans. Turbidity standardized suspensions of each organism were prepared according to accepted protocols using a 0.5 McFarland turbidity standard, and these standardized suspensions were used to inoculate the tubes containing the compounds. Activity of a compound was indicated by lack of growth (turbidity) of one or more of the target organisms. See Woods, G. L. and Washington, J. A., “Antibacterial susceptibility tests: dilution and disk diffusion methods, Manual of Clinical Microbiology (6th Ed.), Murray, Baron, Pfaller, Tenover and Yolken Eds.), ASM Press, Washington D.C., 1995, pp. 1327-1341. Other compounds of the invention may be screened and evaluated for antibiotic activity in the same manner.

[3] = system: Candida albicans; format: cell-based
Description: as §2

[4] = system: Group B Streptococcus (12401); format: cell-based
Description: as §2

[5] = system: Enterobacter cloacae; format: cell-based
Description: as §2

[6] = system: Stenotrophomonas maltophilia; format: cell-based
Description: as §2

[7] = system: Escherichia coli; format: cell-based
Description: as §2

[8] = system: Group A Streptococcus (19615); format: cell-based
Description: as §2

[9] = system: MRSA 034; assay: In-vitro Microbiology of Fraction 73 (MIC/MBZ); format: cell-based, Staphylococcus aureus
Text: as §1

[10] = Microtiter plate assay of HPLC fractions to identify active materials; format: cell-based; conditions: reverse phase HPLC fractions of Method C cyclization mixture
Text: as §1

[11] = system: Methicillin resistant Staphylococcus aureus; format: cell-based
Description: (§3) Antimicrobial activity was determined by macrobroth dilution antimicrobial susceptibility testing. A solution of Loloatin B was prepared in tryptic soy broth. Initially, a […] solution of the peptide was tested. If inhibition of a target microorganism was detected, serial two-fold dilutions (in broth) of the Loloatin B solutions were tested to determine the minimal inhibitory concentration (MIC) of Loloatin B for each target organism Target organisms tested are identified in Table 2. Turbidity standardized suspensions of each organism were prepared according to accepted protocols using a 0.5 McFarland turbidity standard, and these standardized suspensions were used to inoculate a tube containing Loloatin B. Activity of Loloatin B was indicated by lack of growth (turbidity) of one or more of the target organisms.
(§4) See Woods, G. L. et al., “Antibacterial susceptibility tests: dilution and disk diffusion methods, Manual of Clinical Microbiology (6^thEd.), Murray, Baron, Pfaller, Tenover and Yolken (Eds.), ASM Press, Washington D.C., 1995, pp. 1327-1341.

[12] = system: Vancomycin resistant Enterococcus faecalis; format: cell-based
Description: as §3, §4

[13] = system: Penicillin resistant Streptococcus pneumoniae; format: cell-based
Description: as §3, §4

[14] = system: Candida albicans; format: cell-based; remark: listed apart in the source
Description: as §3, §4

[15] = system: Enterobacter cloacae; format: cell-based; remark: listed apart in the source
Description: as §3, §4

[16] = system: Escherichia coli; format: cell-based; remark: listed apart in the source
Description: as §3, §4

[17] = system: Pseudomonas aeruginosa; format: cell-based
Description: as §3, §4

[18] = system: Xanthomonas maltophilia; format: cell-based
Description: as §3, §4

[19] = system: Enterococcus faecalis (ATCC51299); assay: microbe, parasite or virus in culture; format: cell-based; conditions: for BROTH DILUTION MIC: ATCC51299
Description: as §2

[20] = system: Enterococcus faecalis (13242); assay: microbe, parasite or virus in culture; format: cell-based; conditions: for BROTH DILUTION MIC: 13242
Description: as §2

[21] = system: Enterococcus faecium (19007); assay: microbe, parasite or virus in culture; format: cell-based; conditions: for BROTH DILUTION MIC: 19007
Description: as §2

[22] = system: Enterococcus gallinarum; assay: microbe, parasite or virus in culture; format: cell-based
Description: as §2

[23] = system: Enterococcus faecium (F4641); assay: microbe, parasite or virus in culture; format: cell-based; conditions: for BROTH DILUTION MIC: F4641
Description: as §2

[24] = system: Pseudomonas aeruginosa; format: cell-based; remark: listed apart in the source
Description: as §2

[25] = Enterococcus faecium, read-out: BROTH DILUTION MIC

SMILES	BROTH DILUTION MIC [2]	BROTH DILUTION MIC [3]	BROTH DILUTION MIC [4]	BROTH DILUTION MIC [5]	BROTH DILUTION MIC [6]	BROTH DILUTION MIC [7]	BROTH DILUTION MIC [8]	BROTH DILUTION MIC [19]	BROTH DILUTION MIC [20]	BROTH DILUTION MIC [21]	BROTH DILUTION MIC [22]	BROTH DILUTION MIC [23]	BROTH DILUTION MIC [24]	further results
CC(C)C[C@@H]1NC(=O)[C@H](CCCN)NC(=O)[C@H](C(C)C)NC(=O)[C@H](Cc2c[nH]c3ccccc23)NC(=O)[C@H](CC(=O)O)NC(=O)[C@H](CC(N)=O)NC(=O)[C@@H](Cc2ccccc2)NC(=O)[C@H](Cc2ccccc2)NC(=O)[C@@H]2CCCN2C(=O)[C@@H](Cc2ccc(O)cc2)NC1=O [Loloatin B, cyclo [L-Val-L-Orn-L-Leu-D-Tyr-L-Pro-L-Phe-D-Phe-L-Asn-L-Asp-L-Trp]] (cyclo(V[Orn]L[dY]PF[dF]NDW))	2 to 4 µg/mL	16 µg/mL	<1 µg/mL	>100 µg/mL	>100 µg/mL	>100 µg/mL	<0.25 µg/mL	2 to 4 µg/mL	2 to 4 µg/mL	2 to 4 µg/mL	2 to 4 µg/mL	2 to 4 µg/mL		MBZ [1]: >128; MIC [1]: >128; MBZ [9]: 8.0; MIC [9]: 8.0; biological activity of HPLC fraction (in words) [10]: exhibited the desired biological activity; Minimum Inhibitory Concentration [11]: <2 µg/mL; Minimum Inhibitory Concentration [12]: <2 µg/mL; Minimum Inhibitory Concentration [13]: <2 µg/mL; Minimum Inhibitory Concentration [14]: >100 µg/mL; Minimum Inhibitory Concentration [15]: >100 µg/mL; Minimum Inhibitory Concentration [16]: >100 µg/mL; Minimum Inhibitory Concentration [17]: >100 µg/mL; Minimum Inhibitory Concentration [18]: >100 µg/mL
CC(C)C[C@@H]1NC(=O)[C@H](CCCN)NC(=O)[C@H](C(C)C)NC(=O)[C@H](Cc2c[nH]c3ccccc23)NC(=O)[C@H](CC(=O)O)NC(=O)[C@H](CC(N)=O)NC(=O)[C@@H](Cc2ccccc2)NC(=O)[C@H](Cc2c[nH]c3ccccc23)NC(=O)[C@@H]2CCCN2C(=O)[C@@H](Cc2ccc(O)cc2)NC1=O [Loloatin C, cyclo [L-Val-L-Orn-L-Leu-D-Tyr-L-Pro-L-Trp-D-Phe-L-Asn-L-Asp-L-Trp]] (cyclo(DWV[Orn]L[dY]PW[dF]N))	0.5 to 1 µg/mL	16 µg/mL	<0.25 µg/mL	>100 µg/mL	>100 µg/mL	1 to 2 µg/mL	<0.25 µg/mL	2 to 4 µg/mL	1 to 2 µg/mL	2 µg/mL	1 to 2 µg/mL	2 µg/mL	>100 µg/mL	activity against Escherichia coli (in words) ([7]; Escherichia coli, a gram negative rod bacteria, comment on Table 3): excellent activity
CN[C@H](CC(C)C)C(=O)N[C@H]1C(=O)N[C@@H](CC(N)=O)C(=O)N[C@H]2C(=O)N[C@H]3C(=O)N[C@H](C(=O)N[C@H](C(=O)O)c4cc(O)cc(O)c4-c4cc3ccc4O)[C@H](O)c3ccc(c(Cl)c3)Oc3cc2cc(c3O[C@@H]2O[C@H](CO)[C@@H](O)[C@H](O)[C@H]2O[C@H]2C[C@](C)(N)[C@H](O)[C@H](C)O2)Oc2ccc(cc2Cl)[C@H]1O [Vancomycin, vancomycin, reference compound]														MIC ([19]; Enterococcus faecalis, ATCC51299, read-out: BROTH DILUTION MIC): 20 µg/mL (≈ 13.8 µM); MIC ([20]; Enterococcus faecalis, read-out: BROTH DILUTION MIC): > 100 µg/mL; MIC [21, 25]: > 100 µg/mL; MIC ([22]; Enterococcus gallinarum, GALLINARUM, read-out: BROTH DILUTION MIC): 6 µg/mL (≈ 4.14 µM); MIC [23, 25]: 6 µg/mL (≈ 4.14 µM)
CC(C)C[C@@H]1NC(=O)[C@H](CCCN)NC(=O)[C@H](C(C)C)NC(=O)[C@H](Cc2ccc(O)cc2)NC(=O)[C@H](CC(=O)O)NC(=O)[C@H](CC(N)=O)NC(=O)[C@@H](Cc2ccccc2)NC(=O)[C@H](Cc2ccccc2)NC(=O)[C@@H]2CCCN2C(=O)[C@@H](Cc2ccc(O)cc2)NC1=O [Loloatin A, cyclo[L-Val-L-Orn-L-Leu-D-Tyr-L-Pro-L-Phe-D-Phe-L-Asn-L-Asp-L-Tyr]] (cyclo(DYV[Orn]L[dY]PF[dF]N))	2 to 4 µg/mL	16 µg/mL	<1 µg/mL	>100 µg/mL	>100 µg/mL	>100 µg/mL	<0.25 µg/mL	2 to 4 µg/mL	2 to 4 µg/mL	2 to 4 µg/mL	2 to 4 µg/mL	2 to 4 µg/mL	>100 µg/mL	
